Experimental data taken from patent US12459967B2, “Modulators of 5′-nucleotidase, ecto and the use thereof” (Arcus Biosciences, Inc., priority 2016, dated 2025).

Target: T1, human CD73 (Homo sapiens, UniProt P21589)
T1 construct: host or cells: CHO-K1 (suspension pool CHO-CD73)
T1 sequence (P21589 27-549): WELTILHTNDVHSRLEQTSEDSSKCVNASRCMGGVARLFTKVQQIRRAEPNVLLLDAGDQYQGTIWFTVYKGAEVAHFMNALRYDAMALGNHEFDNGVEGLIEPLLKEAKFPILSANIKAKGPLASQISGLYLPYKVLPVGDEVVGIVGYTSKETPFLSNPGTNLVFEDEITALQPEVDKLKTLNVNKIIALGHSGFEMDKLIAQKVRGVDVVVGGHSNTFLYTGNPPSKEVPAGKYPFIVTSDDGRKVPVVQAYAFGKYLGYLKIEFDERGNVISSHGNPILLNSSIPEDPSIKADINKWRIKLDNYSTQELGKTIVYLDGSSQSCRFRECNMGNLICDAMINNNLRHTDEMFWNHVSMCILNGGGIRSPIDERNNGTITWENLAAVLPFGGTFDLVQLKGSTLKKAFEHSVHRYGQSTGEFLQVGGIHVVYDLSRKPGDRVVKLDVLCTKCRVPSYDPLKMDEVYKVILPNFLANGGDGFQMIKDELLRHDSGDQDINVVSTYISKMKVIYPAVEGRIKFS
Assay: Inhibition of ecto-5′-nucleotidase (CD73) activity in CHO-CD73 cells, phosphate colorimetric readout
Format: cell-based
Settings: CHO-K1 cells stably transfected with human CD73, 2500 cells per well, 25 μM AMP substrate, 50 minutes incubation at 37° C.; read-out: Potency: CD73 IC50
Protocol: Inhibition of Ecto-5′-nucleotidase Activity. Compounds were evaluated to determine their ecto-5′-nucleotidase (CD73) inhibitory activity. Briefly, CHO-K1 cells stably transfected with human CD73 were generated by LakePharma (Belmont, CA) using molecular cloning of human CD73 (http://www.uniprot.org/uniprot/P21589) and mammalian transient expression vector (P21589.1). After antibiotic selection in CD OptiCHO cell media (Invitrogen, Catalog #12681-011) containing 5 μg/mL Puromycin and 200 μg/mL Hygromycin B, a suspension pool of CHO-CD73 cells was collected and frozen in 7.5% DMSO in cell media without antibiotics.
On the day of the experiment, one vial of CHO-CD73 cells was thawed and suspended in assay media which consisted of 20 mM HEPES, pH 7.4, 137 mM NaCl, 5.4 mM KCl, 1.3 mM CaCl2), 4.2 mM NaHCO3 and 0.1% glucose. To test the ability of compounds to inhibit CD73 enzymatic activity, 2 μL of 500 μM of compounds dissolved in DMSO (50×) were added to a 96-well polystyrene plate containing 58 μL of assay buffer. Next, 20 μL of CHO-CD73 cells in assay buffer were added to assay plate followed by 20 μL of 125 μM AMP (Adenosine 5′-monophosphate monohydrate) in assay buffer. Final assay conditions consisted of 2500 cells per well in 2% DMSO and 25 μM of AMP substrate. After 50 minutes of incubation (37° C. and 5% CO2) and centrifugation at 225×g for 5 mins, 80 μL of supernatant were transferred to a 96-well Spectra Plate (PerkinElmer, cat #6005640) which was pre-dispensed with 20 μL of PiColorLock Gold colorimetric assay reagents (Thermo, cat #30 300 30). The amount of inorganic phosphate was determined by reading the absorbance at 620 nm on an EnVision Multilabel Plate Reader (PerkinElmer). Enzymatic activity of CD73 was based on the amount of phosphate generated. Percentage of activity was calculated based on DMSO and no cells control wells. IC50 values of compounds were determined by four parameter non-linear regression fitting of percentage of activity in GraphPad Prism software.

IC50 [nM] | Structure (SMILES)
< 100 | C[C@H](Nc1nc(Cl)nc2c1cnn2[C@@H]1O[C@H](COP(=O)(O)CP(=O)(O)O)[C@@H](O)[C@@H]1F)c1ccccc1
< 100 | C[C@H](Nc1nc(Cl)nc2c1cnn2[C@@H]1O[C@H](COP(=O)(O)CP(=O)(O)O)[C@@H](O)[C@H]1O)c1ccccc1F
< 100 | O=P(O)(O)CP(=O)(O)OC[C@H]1O[C@@H](n2cnc3c(NCc4ccccc4)nc(N4CCOCC4)nc32)[C@H](O)[C@@H]1O
< 100 | Cc1nc(NCc2ccccc2)c2ncn([C@@H]3O[C@H](COP(=O)(O)CP(=O)(O)O)[C@@H](O)[C@H]3O)c2n1
< 100 | C[C@@H](Nc1nc(Cl)nc2c1cnn2[C@@H]1O[C@H](COP(=O)(O)CP(=O)(O)O)[C@@H](O)[C@H]1O)c1cccc(F)c1
< 100 | C[C@@H](Nc1nc(Cl)nc2c1ncn2[C@@H]1O[C@H](COP(=O)(O)CP(=O)(O)O)[C@@H](O)[C@@H]1F)c1ccccc1
100 to 1000 | CC(C)S(=O)(=O)c1nc(NCc2ccccc2)c2ncn([C@@H]3O[C@H](COP(=O)(O)CP(=O)(O)O)[C@@H](O)[C@H]3O)c2n1
< 100 | Nc1nc(Cl)nc2c1ncn2[C@@H]1O[C@H](COP(=O)(O)CP(=O)(O)O)[C@@H](O)[C@@H]1F
< 100 | COc1nc(NCc2ccccc2)c2ncn([C@@H]3O[C@H](COP(=O)(O)CP(=O)(O)O)[C@@H](O)[C@H]3O)c2n1
< 100 | Cc1nc(NC2CCCC2)c2ncn([C@@H]3O[C@H](COP(=O)(O)CP(=O)(O)O)[C@@H](O)[C@@H]3F)c2n1
< 100 | CCC(OP(=O)(O)CP(=O)(O)O)[C@H]1O[C@@H](n2cnc3c(NCc4ccccc4)nc(Cl)nc32)[C@H](O)[C@@H]1O (some centres unmarked)
< 100 | O=P(O)(O)CP(=O)(O)OC[C@H]1O[C@@H](n2cnc3c(N4CCCC4)nc(Cl)nc32)[C@@H](F)[C@@H]1O
< 100 | O=P(O)(O)CP(=O)(O)OC[C@H]1O[C@@H](n2cnc3c(NCc4ccc(F)cc4)nc(Cl)nc32)[C@@H](F)[C@@H]1O
< 100 | C[C@H](Nc1nc(Cl)nc2c1cnn2[C@@H]1O[C@H](COP(=O)(O)CP(=O)(O)O)[C@@H](O)[C@H]1O)c1ccc(F)cc1
< 100 | O=P(O)(O)CP(=O)(O)OC[C@H]1O[C@@H](n2ncc3c(NC4CCCC4)ncnc32)[C@H](O)[C@@H]1O
< 100 | CN(c1nc(Cl)nc2c1ncn2[C@@H]1O[C@H](COP(=O)(O)CP(=O)(O)O)[C@@H](O)[C@@H]1F)C1CCCC1
< 100 | CN(Cc1ccccc1)c1nc(Cl)nc2c1cnn2[C@@H]1O[C@H](COP(=O)(O)CP(=O)(O)O)[C@@H](O)[C@H]1O
< 100 | O=P(O)(O)CP(=O)(O)OC[C@H]1O[C@@H](n2cnc3c(NCc4ccccc4Cl)nc(Cl)nc32)[C@@H](F)[C@@H]1O
< 100 | O=P(O)(O)CP(=O)(O)OC[C@H]1O[C@@H](n2cnc3c(NCc4cccc(F)c4)nc(Cl)nc32)[C@@H](F)[C@@H]1O
< 100 | O=P(O)(O)CP(=O)(O)OC[C@H]1O[C@@H](n2ncc3c(NCc4ccccc4Cl)nc(Cl)nc32)[C@H](O)[C@@H]1O
< 100 | C[C@H](Nc1nc(Cl)nc2c1ccn2[C@@H]1O[C@H](COP(=O)(O)CP(=O)(O)O)[C@@H](O)[C@@H]1F)c1ccccc1
< 100 | O=P(O)(O)CP(=O)(O)OC[C@H]1O[C@@H](n2cnc3c(NCc4ccccc4)nc(CCc4ccccc4)nc32)[C@@H](F)[C@@H]1O
< 100 | C[C@H](Nc1nc(Cl)nc2c1ncn2[C@@H]1O[C@H](COP(=O)(O)CP(=O)(O)O)[C@@H](O)[C@@H]1F)c1ccccc1
< 100 | CC(C)Nc1nc(Cl)nc2c1ncn2[C@@H]1O[C@H](COP(=O)(O)CP(=O)(O)O)[C@@H](O)[C@H]1O
< 100 | O=P(O)(O)CP(=O)(O)OC[C@H]1O[C@@H](n2cnc3c(NCc4cccc(Cl)c4)nc(Cl)nc32)[C@@H](F)[C@@H]1O

IC50 [nM] | Structure (SMILES)
< 100 | C[C@@H](Nc1nc(Cl)nc2c1cnn2[C@@H]1O[C@H](COP(=O)(O)CP(=O)(O)O)[C@@H](O)[C@@H]1F)c1cccc(F)c1
< 100 | CN(Cc1ccccc1Cl)c1nc(Cl)nc2c1ncn2[C@@H]1O[C@H](COP(=O)(O)CP(=O)(O)O)[C@@H](O)[C@@H]1F
< 100 | CC(C)N(C)c1nc(Cl)nc2c1ncn2[C@@H]1O[C@H](COP(=O)(O)CP(=O)(O)O)[C@@H](O)[C@H]1O
< 100 | O=P(O)(O)CP(=O)(O)OC[C@H]1O[C@@H](n2cnc3c(NC4CCOCC4)nc(Cl)nc32)[C@@H](F)[C@@H]1O
100 to 1000 | O=P(O)(O)CP(=O)(O)OC[C@H]1O[C@@H](n2cnc3c(NC4CCCC4)nc(CN4CCCCC4)nc32)[C@@H](F)[C@@H]1O
< 100 | C[C@@H](Nc1nc(Cl)nc2c1cnn2[C@@H]1O[C@H](COP(=O)(O)CP(=O)(O)O)[C@@H](O)[C@H]1O)c1ccccc1F
> 1000 | CC(COP(=O)(O)CP(=O)(O)O)n1cnc2c(NCc3ccccc3)ncnc21 (centres unmarked)
< 100 | C[C@@H](Nc1nc(Cl)nc2c1cnn2[C@@H]1O[C@H](COP(=O)(O)CP(=O)(O)O)[C@@H](O)[C@@H]1F)c1ccccc1F
< 100 | C=Cc1nc(NCc2ccccc2)c2ncn([C@@H]3O[C@H](COP(=O)(O)CP(=O)(O)O)[C@@H](O)[C@H]3O)c2n1
< 100 | O=P(O)(O)CP(=O)(O)OC[C@H]1O[C@@H](n2cnc3c(NC4CCCC4)cc(Cl)nc32)[C@@H](F)[C@@H]1O
< 100 | O=P(O)(O)CP(=O)(O)OC[C@H]1O[C@@H](n2cnc3c(NCc4ccccc4)nc(-c4ccccc4)nc32)[C@@H](F)[C@@H]1O
< 100 | O=P(O)(O)CP(=O)(O)OC[C@H]1O[C@@H](n2cnc3c(NCc4ccc(Br)cc4)ncnc32)[C@H](O)[C@@H]1O
< 100 | C=CCc1nc(NCc2ccccc2)c2ncn([C@@H]3O[C@H](COP(=O)(O)CP(=O)(O)O)[C@@H](O)[C@H]3O)c2n1
< 100 | CN(C)c1nc(NCc2ccccc2)c2ncn([C@@H]3O[C@H](COP(=O)(O)CP(=O)(O)O)[C@@H](O)[C@H]3O)c2n1
< 100 | CNc1nc(Cl)nc2c1cnn2[C@@H]1O[C@H](COP(=O)(O)CP(=O)(O)O)[C@@H](O)[C@H]1O
< 100 | C[C@H](Nc1nc(Cl)nc2c1cnn2[C@@H]1O[C@H](COP(=O)(O)CP(=O)(O)O)[C@@H](O)[C@H]1O)c1ccccc1
< 100 | O=P(O)(O)CP(=O)(O)OC[C@H]1O[C@@H](n2cnc3c(NC4CCCC4)nc(Cl)nc32)[C@H](O)[C@@H]1O
< 100 | CC(C)(C)c1ccc(CNc2ncnc3c2ncn3[C@@H]2O[C@H](COP(=O)(O)CP(=O)(O)O)[C@@H](O)[C@H]2O)cc1
< 100 | C[C@H](Nc1cc(Cl)nc2c1cnn2[C@@H]1O[C@H](COP(=O)(O)CP(=O)(O)O)[C@@H](O)[C@@H]1F)c1ccccc1
< 100 | COCc1nc(NC2CCCC2)c2ncn([C@@H]3O[C@H](COP(=O)(O)CP(=O)(O)O)[C@@H](O)[C@@H]3F)c2n1
< 100 | Cc1nc(NCc2ccccc2)c2ncn([C@@H]3O[C@H](COP(=O)(O)CP(=O)(O)O)[C@@H](O)[C@@H]3F)c2n1
< 100 | O=P(O)(O)CP(=O)(O)OC[C@H]1O[C@@H](n2ncc3c(NCc4ccccc4)nc(Cl)nc32)[C@@H](F)[C@@H]1O
< 100 | O=P(O)(O)CP(=O)(O)OC[C@H]1O[C@@H](n2cnc3c(NCc4ccccc4)nc(Cl)nc32)[C@@H](F)[C@@H]1O
< 100 | CC(C)(C)CNc1nc(Cl)nc2c1ncn2[C@@H]1O[C@H](COP(=O)(O)CP(=O)(O)O)[C@@H](O)[C@H]1O
< 100 | CNc1nc(Cl)nc2c1ncn2[C@@H]1O[C@H](COP(=O)(O)CP(=O)(O)O)[C@@H](O)[C@@H]1F

Structure (SMILES) | IC50 [nM]
COP(=O)(O)CP(=O)(O)OC[C@H]1O[C@@H](n2cnc3c(NC4CCCC4)nc(Cl)nc32)[C@H](O)[C@@H]1O | 100 to 1000
COP(=O)(O)CP(=O)(OC)OC[C@H]1O[C@@H](n2cnc3c(N(C)C4CCCC4)nc(Cl)nc32)[C@@H](F)[C@@H]1O (some centres unmarked) | > 1000
COP(=O)(CP(=O)(O)O)OC[C@H]1O[C@@H](n2cnc3c(N(C)C4CCCC4)nc(Cl)nc32)[C@@H](F)[C@@H]1O (some centres unmarked) | < 100
